Source: publication PMC6381024, “Probing Anti-inflammatory Properties Independent of NF-κB Through Conformational Constraint of Peptide-Based Interleukin-1 Receptor Biased Ligands” (Frontiers in Chemistry, 2019)

Experiments:
[1] = test system: IL-6; test: qPCR of IL-1β-induced IL-6 expression in HEK-Blue IL-33/IL-1β cells; format: cell-based, human; set-up: key to qPCR IL-6 (heatmap grade of inhibition): 0: No effect; No effect 01234 Maximum inhibition/efficacy; No effect 01234 Maximum inhibition/efficacy; No effect 01234 Maximum inhibition/efficacy; 4: Maximum inhibition/efficacy; conditions: for qPCR IL-6 (heatmap grade of inhibition): HEK-Blue cells, peptide 10^-6 M or Kineret 1.0 mg/mL 30 min, then IL-1β 100 ng/mL 4 h (legend: overnight); for Suppression of IL-6 transcription: HEK blue cells, 10^-6 M pre-treatment, IL-1β stimulation
Protocol: HEK-Blue IL-33/IL-1β cells were purchased from InvivoGen (San Diego, CA) and used at passages under 15. HEK-Blue cells were cultured in DMEM growth medium supplemented with 10% serum, 50 U/mL penicillin, […] streptomycin, […] zeocin, and […] hygromycin. Cells were grown in regular conditions (37°C, 5% CO2). Cells were serum starved overnight and treated with 100 ng/mL IL-1β for 4 h. Cells were pre-incubated for 30 min with peptides 1, 5, or 6 (10^−6M) or Kineret (1.0 mg/mL) prior to the experiments to reach equilibrium (n = 4 each treatment). Cells were harvested and incubated for 5 min in RIBOzol (AMRESCO). RNA was extracted according to manufacturer's protocol and RNA concentration and integrity were measured with a NanoDrop 1,000 spectrophotometer. A total of 500 ng RNA was used to synthetize cDNA using iScript Reverse Transcription SuperMix (Bio-Rad, Hercules, CA). Quantitative gene expression analysis was performed on Stratagene MXPro3000 (Stratagene) with SYBR Green Master Mix (Bio-Rad). Gene expression levels were normalized to 18S universal primer (Ambion Life Technology, Burlington ON, Canada). Genes analyzed include IL1β, IL6, and PTGHS2 [Prostaglandin H synthetase 2 or cyclooxygenase-2 (COX-2)]. Data are representative of 3 experiments (each with n = 4 per treatment group).
Figure 8 The effects of peptides 1, 5, and 6 on the expression of pro-inflammatory genes. HEK-Blue cells were pre-treated with peptides 1, 5, and 6 as above and stimulated with IL-1β overnight. qPCR was performed on cell lysates using 18S rRNA as internal control. Graphs are sorted in columns by gene of interest (COX-2, IL-1β, or IL-6) and rows by peptide configuration [(3R) or (3S)]. Results are representative of an average of 3 independent experiments (each with n = 4 per treatment group) and are expressed as a fold-change of the non-stimulated control: ^*p < 0.05, ^**p < 0.01, ^***p < 0.001, ^****p < 0.0001 compared to group treated only with IL-1β. Treatment groups that are not labeled with asterisks are statistically non-significant compared to group treated only with IL-1β.

[2] = test system: NF-κB; test: NF-κB QUANTI-Blue assay (secreted alkaline phosphatase reporter) in HEK-Blue IL-33/IL-1β cells; format: cell-based; set-up: key to Nf-κB (heatmap grade of inhibition): 0: No effect; No effect 01234 Maximum inhibition/efficacy; No effect 01234 Maximum inhibition/efficacy; No effect 01234 Maximum inhibition/efficacy; 4: Maximum inhibition/efficacy; conditions: for Nf-κB (heatmap grade of inhibition): HEK-Blue cells, peptide 10^-6 M or Kineret 1.0 mg/mL 30 min, then IL-1β 100 ng/mL 4 h, QUANTI-Blue
Protocol: HEK-Blue IL-33/IL-1β cells (InvivoGen) were pretreated with peptides 1, 5, or 6 (10^−6M) or Kineret (1.0 mg/mL) for 30 min, followed by treatment with a constant concentration of IL-1β (100 ng/mL), and then incubated at 37°C for 4 h. Levels of secreted alkaline phosphatase in cell culture supernatant were determined using the QUANTI-Blue assay, according to the manufacturer's instructions (InvivoGen). Alkaline phosphatase activity was assessed by measuring the optical density (OD) at 620–655 nm with a micro plate reader (EnVision Multilabel reader; PerkinElmer, Waltham, MA). Data are representative of 3 experiments (each with n = 4 per treatment group).
Figure 6 The effects of peptides 1, 5, and 6 on IL-1-induced NF-κB signaling. NF-κB activation was quantified on HEK-blue cells using the QUANTI-blue assay, which spectroscopically detects secreted alkaline phosphatase, a reporter product from the transcription of the NF-κB gene. HEK-blue cells were pre-incubated with peptides 1, 5, and 6 or vehicle, then stimulated with IL-1β for 4 h. Data shown represents the average of 3 experiments, each with n = 4 per treatment group. ^****p < 0.0001 compared to group treated only with IL-1β. Treatment groups that are not labeled with asterisks are statistically non-significant compared to group treated only with IL-1β.

[3] = test system: IL-1R; test: Radioligand displacement of [125I]-peptide 1 in RAW-Blue macrophage cells; format: binding; conditions: for Percentage of displacement of [125I]-1, relative to unlabeled peptide 1, ±SEM: 100 μM cold peptide pre-incubated 20 min, then 600 nM [125I]-peptide 1 for 2 h at 37°C, gamma counter, mean ± SEM, three independent experiments
Protocol: Displacement of radiolabeled peptide 1 was performed as described previously (Quiniou et al., [2008]). Briefly, RAW-Blue macrophage cells (InVivogen; San Diego, CA) were pre-incubated for 20 min with 100 μM of non-radiolabeled (“cold”) peptide 1, 5, or 6 followed by incubation for 2 h at 37°C with [^125I]-peptide 1 at 600 nM concentration to ensure maximal specific binding (Quiniou et al., [2008]). Cells were washed four times with PBS buffer and lysed with 0.1 N NaOH/0.1% Triton X-100. Bound radioactivity was measured on cell lysates with a Hidex AMG gamma counter (Hidex; Turku Finland). Data are representative of three independent experiments.
Peptide 1 is known to bind to IL-1R (Quiniou et al., [2008]). To determine if the Agl and Hgl derivatives occupied the same binding site as peptide 1, a radio-ligand displacement assay was used to determine the extent to which peptides 5 and 6 displaced radiolabeled 1.

With “H-D-Arg-D-Tyr-(3S,4R)-Hgl-D-Val-D-Glu-D-Leu-D-Ala-NH2 [[(3S,4R)-Hgl^3]-1]” the “qPCR IL-6 (heatmap grade of inhibition)” value [1] was 4, the “Nf-κB (heatmap grade of inhibition)” value [2] was 0 and the “Percentage of displacement of [125I]-1, relative to unlabeled peptide 1, ±SEM” value [3] was 78.64 ± 21.22%.

With “H-D-Arg-D-Tyr-(3R,4S)-Hgl-D-Val-D-Glu-D-Leu-D-Ala-NH2 [[(3R,4S)-Hgl^3]-1]” the “qPCR IL-6 (heatmap grade of inhibition)” value [1] was 4, the “Nf-κB (heatmap grade of inhibition)” value [2] was 0 and the “Percentage of displacement of [125I]-1, relative to unlabeled peptide 1, ±SEM” value [3] was 32.13 ± 16.94%. The “Capacity to displace [125I]-1 compared to cold unlabeled peptide 1” value ([3]; 100 μM cold peptide, 600 nM [125I]-peptide 1) was “significantly lower (p = 0.0011) ability to compete with radiolabeled peptide 1”.

With “Kineret: FDA-approved recombinant IL-1 receptor antagonist” the “qPCR IL-6 (heatmap grade of inhibition)” value [1] was 4, the “Nf-κB (heatmap grade of inhibition)” value [2] was 4 and the “Inhibition of IL-1-induced NF-κB signaling” value ([2]; HEK-blue cells, peptide 10^-6 M or Kineret 1.0 mg/mL, IL-1β 4 h, QUANTI-blue) was “inhibited NF-κB”.

With “H-D-Arg-D-Tyr-(S)-Agl-D-Val-D-Glu-D-Leu-D-Ala-NH2 [[(3S)-Agl^3]-1]” the “qPCR IL-6 (heatmap grade of inhibition)” value [1] was 2, the “Nf-κB (heatmap grade of inhibition)” value [2] was 0 and the “Percentage of displacement of [125I]-1, relative to unlabeled peptide 1, ±SEM” value [3] was 106.6 ± 12.39%.

With “H-D-Arg-D-Tyr-(3R,4R)-Hgl-(S)-Val-D-Glu-D-Leu-D-Ala-NH2 [[(3R,4R)-Hgl^3-(S)-Val^4]-1]” the “qPCR IL-6 (heatmap grade of inhibition)” value [1] was 4, the “Nf-κB (heatmap grade of inhibition)” value [2] was 0 and the “Percentage of displacement of [125I]-1, relative to unlabeled peptide 1, ±SEM” value [3] was 82.12 ± 14.12%.

“H-D-Arg-D-Tyr-(R)-Agl-D-Val-D-Glu-D-Leu-D-Ala-NH2 [[(3R)-Agl^3]-1]” was tested, and the “qPCR IL-6 (heatmap grade of inhibition)” value [1] was 3, the “Nf-κB (heatmap grade of inhibition)” value [2] was 0 and the “Percentage of displacement of [125I]-1, relative to unlabeled peptide 1, ±SEM” value [3] was 83.55 ± 9.02%.

In the case of “H-D-Arg-D-Tyr-(S)-Agl-(S)-Val-D-Glu-D-Leu-D-Ala-NH2 [[(3S)-Agl^3-(S)-Val^4]-1]”, the “Suppression of IL-6 transcription” value [1] is reported as “ability to suppress the transcription of all three genes was lost”, the “qPCR IL-6 (heatmap grade of inhibition)” value [1] is reported as 1 and the “Nf-κB (heatmap grade of inhibition)” value [2] is reported as 0. For the same substance, the “Percentage of displacement of [125I]-1, relative to unlabeled peptide 1, ±SEM” value [3] was 102.7 ± 8.637%.

With “H-D-Arg-D-Tyr-(R)-Agl-(S)-Val-D-Glu-D-Leu-D-Ala-NH2 [[(3R)-Agl^3-(S)-Val^4]-1]” the “Suppression of IL-6 transcription” value [1] was “ability to suppress the transcription of all three genes was lost”, the “qPCR IL-6 (heatmap grade of inhibition)” value [1] was 1 and the “Nf-κB (heatmap grade of inhibition)” value [2] was 0. For the same substance, the “Percentage of displacement of [125I]-1, relative to unlabeled peptide 1, ±SEM” value [3] was 120.7 ± 15.69%.

For “H-D-Arg-D-Tyr-(3R,4S)-Hgl-(S)-Val-D-Glu-D-Leu-D-Ala-NH2 [[(3R,4S)-Hgl^3-(S)-Val^4]-1]”, the “qPCR IL-6 (heatmap grade of inhibition)” value [1] was 2, the “Nf-κB (heatmap grade of inhibition)” value [2] was 0 and the “Percentage of displacement of [125I]-1, relative to unlabeled peptide 1, ±SEM” value [3] was 58.63 ± 13.45%.

In the case of “H-D-Arg-D-Tyr-(3R,4R)-Hgl-D-Val-D-Glu-D-Leu-D-Ala-NH2 [[(3R,4R)-Hgl^3]-1]”, the “qPCR IL-6 (heatmap grade of inhibition)” value [1] is reported as 4, the “Nf-κB (heatmap grade of inhibition)” value [2] is reported as 0 and the “Percentage of displacement of [125I]-1, relative to unlabeled peptide 1, ±SEM” value [3] is reported as 104.6 ± 6.826%.

With “H-D-Arg-D-Tyr-D-Thr-D-Val-D-Glu-D-Leu-D-Ala-NH2 [Peptide 1]” the “Suppression of IL-6 transcription” value [1] was “strong suppression of transcription of all three genes”, the “qPCR IL-6 (heatmap grade of inhibition)” value [1] was 4 and the “Nf-κB (heatmap grade of inhibition)” value [2] was 0.
